Assay results taken from patent US4461831A, “Antitumor agents albacarcins V and M” (Bristol-Myers Company, priority 1982, dated 1984).
≈ marks a conversion by molar mass, not a printed value. Where two headings read alike, the source gives them in different places.

What was measured:
[1] = test system: Streptomyces albaduncus strain C38291; assay: growth inhibition of producing strain by antibiotics; format: cell-based
From the text: The growth of strain C38291 is inhibited by streptomycin or tetracycline, but not by benzylpenicillin, ampicillin or erythromycin. The sodium chloride tolerance is seen at 8% or less, but not at 10% or more. Melanin is not produced from L-3,4-dihydroxy phenylalanine (L-DOPA). Among eleven diagnostic sugars described in Bergey's Manual, 8th ed. (1974), only raffinose is not utilized by strain C38291. The physiological characteristics and utilization of carbohydrates are shown in Tables II and III, respectively.

P388 leukemia = format: in vivo, CDF1 female mice; details: for Effect MST % T/C / MST (median survival time): 3X, Days 1,4,7; for host survival in the P388 leukemia screening test (in words): mouse, in vivo
From the text: Details of the methods used in this procedure have been described in Cancer Chemother. Rep. 3: 1-87 (Part 3), 1972.
Host CDF1 .female. mice
Treatment 3X, Days 1,4,7
Evaluation MST = median survival time
Effect % T/C = (MST treated/MST control) × 100
Criteria % T/C ≥ 125 considered significant antitumor activity.

Escherichia coli = assay: antibacterial activity, serial two-fold agar dilution method; format: cell-based
Protocol: (§1) The antibacterial activities of albacarcin V and M were determined by a serial two-fold agar dilution method.

Enterobacter cloacae = assay: as above; format: cell-based; details: Strain No. 9659
Protocol: as §1

Klebsiella pneumoniae = assay: as above; format: cell-based; details: Strain No. 15130
Protocol: as §1

Serratia marcescens = assay: as above; format: cell-based; details: Strain No. 20019
Protocol: as §1

Proteus mirabilis = assay: as above; format: cell-based; details: Strain No. 9900
Protocol: as §1

Proteus vulgaris = assay: as above; format: cell-based; details: Strain No. 21559
Protocol: as §1

Streptococcus pyogenes = assay: as above; format: cell-based; details: Strain No. 9604
Protocol: as §1

Pseudomonas aeruginosa = assay: as above; format: cell-based; details: Strain No. 9843A
Protocol: as §1

Streptococcus pneumoniae = assay: as above; format: cell-based; details: Strain No. 9585
Protocol: as §1

Staphylococcus aureus = assay: as above; format: cell-based; details: for MIC: Staphylococcus aureus, read-out: Minimum Inhibitory Concentration
Protocol: as §1

gram-negative bacteria = assay: antibacterial activity, agar dilution, gram-negative summary; format: cell-based; details: at the highest dose tested
Protocol: as §1

gram-positive bacteria = assay: antibacterial activity, agar dilution, gram-positive summary; format: cell-based; details: summary of Table IV
Protocol: as §1

[2] = reported in Antibiotiki 22: 963-967 at 967, 1977; cited from earlier work

CC1(C)S[C@@H]2[C@H](NC(=O)Cc3ccccc3)C(=O)N2[C@H]1C(=O)O [benzylpenicillin]
growth of strain C38291 inhibited or not [1]: not

COc1cc2c(oc(=O)c3cc(C)cc(OC)c32)c2c(C3OC(C)C(O)C(C)(O)C3O)ccc(O)c12 (stereo not drawn) [Albacarcin M, albacarcin M]
Effect MST % T/C (P388 leukemia; 8 mg/kg/inj): 113 % T/C
MST (median survival time) (P388 leukemia; 8 mg/kg/inj): 9.0 days
Effect MST % T/C (P388 leukemia; 16 mg/kg/inj): 119 % T/C
MST (median survival time) (P388 leukemia; 16 mg/kg/inj): 9.5 days
Effect MST % T/C (P388 leukemia; 32 mg/kg/inj): 150 % T/C
MST (median survival time) (P388 leukemia; 32 mg/kg/inj): 12.0 days
Effect MST % T/C (P388 leukemia; 64 mg/kg/inj): 150 % T/C
MST (median survival time) (P388 leukemia; 64 mg/kg/inj): 12.0 days
Effect MST % T/C (P388 leukemia; 128 mg/kg/inj): 175 % T/C
MST (median survival time) (P388 leukemia; 128 mg/kg/inj): 14.0 days
Effect MST % T/C (P388 leukemia; 256 mg/kg/inj): 200 % T/C
MST (median survival time) (P388 leukemia; 256 mg/kg/inj): 16.0 days
host survival in the P388 leukemia screening test (in words) (P388 leukemia): significantly prolong host survival
MIC (Escherichia coli; Escherichia coli, Strain No. 15119, read-out: Minimum Inhibitory Concentration): > 50 µg/mL
Minimum Inhibitory Concentration (Escherichia coli; Strain No. 20341-1): > 50 µg/mL
MIC (Enterobacter cloacae; Enterobacter cloacae, read-out: Minimum Inhibitory Concentration): > 50 µg/mL
MIC (Klebsiella pneumoniae; Klebsiella pneumoniae, read-out: Minimum Inhibitory Concentration): > 50 µg/mL
MIC (Serratia marcescens; Serratia marcescens, read-out: Minimum Inhibitory Concentration): > 50 µg/mL
MIC (Proteus mirabilis; Proteus mirabilis, read-out: Minimum Inhibitory Concentration): > 50 µg/mL
MIC (Proteus vulgaris; Proteus vulgaris, read-out: Minimum Inhibitory Concentration): > 50 µg/mL
MIC (Streptococcus pyogenes; Streptococcus pyogenes, read-out: Minimum Inhibitory Concentration): 1.6 µg/mL (≈ 3.22 µM)
MIC (Pseudomonas aeruginosa; Pseudomonas aeruginosa, read-out: Minimum Inhibitory Concentration): > 50 µg/mL
MIC (Streptococcus pneumoniae; Streptococcus pneumoniae, read-out: Minimum Inhibitory Concentration): 0.4 µg/mL (≈ 0.806 µM)
MIC (Staphylococcus aureus; Strain No. 9497): 0.8 µg/mL (≈ 1.61 µM)
MIC (Staphylococcus aureus; Strain No. 9537): 3.2 µg/mL (≈ 6.44 µM)
MIC (Staphylococcus aureus; Strain No. 9606): 3.2 µg/mL (≈ 6.44 µM)
MIC (Staphylococcus aureus; Strain No. 20688): 1.6 µg/mL (≈ 3.22 µM)
gram-negative activity (in words) (gram-negative bacteria): Little or no gram-negative activity
gram-positive antibacterial activity (in words) (gram-positive bacteria): moderate gram-positive antibacterial activity

CC1(C)S[C@@H]2[C@H](NC(=O)[C@H](N)c3ccccc3)C(=O)N2[C@H]1C(=O)O [ampicillin]
growth of strain C38291 inhibited or not [1]: not

CC[C@H]1OC(=O)[C@H](C)[C@@H](O[C@H]2C[C@@](C)(OC)[C@@H](O)[C@H](C)O2)[C@H](C)[C@@H](O[C@@H]2O[C@H](C)C[C@H](N(C)C)[C@H]2O)[C@](C)(O)C[C@@H](C)C(=O)[C@H](C)[C@@H](O)[C@]1(C)O [erythromycin]
growth of strain C38291 inhibited or not [1]: not

C=Cc1cc(OC)c2c(c1)c(=O)oc1c2cc(OC)c2c(O)ccc(C3OC(C)C(O)C(C)(O)C3O)c21 (stereo not drawn) [Albacarcin V, albacarcin V]
Effect MST % T/C (P388 leukemia; 8 mg/kg/inj): 113 % T/C
MST (median survival time) (P388 leukemia; 8 mg/kg/inj): 9.0 days
Effect MST % T/C (P388 leukemia; 16 mg/kg/inj): 131 % T/C
MST (median survival time) (P388 leukemia; 16 mg/kg/inj): 10.5 days
Effect MST % T/C (P388 leukemia; 32 mg/kg/inj): 150 % T/C
MST (median survival time) (P388 leukemia; 32 mg/kg/inj): 12.0 days
Effect MST % T/C (P388 leukemia; 64 mg/kg/inj): 194 % T/C
MST (median survival time) (P388 leukemia; 64 mg/kg/inj): 15.5 days
Effect MST % T/C (P388 leukemia; 128 mg/kg/inj): 200 % T/C
MST (median survival time) (P388 leukemia; 128 mg/kg/inj): 16.0 days
Effect MST % T/C (P388 leukemia; 256 mg/kg/inj): 100 % T/C
MST (median survival time) (P388 leukemia; 256 mg/kg/inj): 8.0 days
potency relative to albacarcin M in P388 test (P388 leukemia; comparing optimum doses (maximum T/C) and minimum effective dose (lowest dose giving T/C>125)): twice as potent as albacarcin M
host survival in the P388 leukemia screening test (in words) (P388 leukemia): significantly prolong host survival
Minimum Inhibitory Concentration (Escherichia coli; Strain No. 15119): > 50 µg/mL
Minimum Inhibitory Concentration (Escherichia coli; Strain No. 20341-1): > 50 µg/mL
Minimum Inhibitory Concentration (Enterobacter cloacae): > 50 µg/mL
Minimum Inhibitory Concentration (Klebsiella pneumoniae): > 50 µg/mL
Minimum Inhibitory Concentration (Serratia marcescens): > 50 µg/mL
Minimum Inhibitory Concentration (Proteus mirabilis): > 50 µg/mL
Minimum Inhibitory Concentration (Proteus vulgaris): 3.2 µg/mL
Minimum Inhibitory Concentration (Streptococcus pyogenes): 0.05 µg/mL
Minimum Inhibitory Concentration (Pseudomonas aeruginosa): > 50 µg/mL
Minimum Inhibitory Concentration (Streptococcus pneumoniae): 0.025 µg/mL
Minimum Inhibitory Concentration (Staphylococcus aureus; Strain No. 9497): 0.0125 µg/mL
Minimum Inhibitory Concentration (Staphylococcus aureus; Strain No. 9537): 0.0125 µg/mL
Minimum Inhibitory Concentration (Staphylococcus aureus; Strain No. 9606): 0.4 µg/mL
Minimum Inhibitory Concentration (Staphylococcus aureus; Strain No. 20688): 0.1 µg/mL
gram-negative activity (in words) (gram-negative bacteria): Little or no gram-negative activity
antibacterial potency relative to albacarcin M (gram-positive bacteria): more potent than albacarcin M
gram-positive antibacterial activity (in words) (gram-positive bacteria): moderate gram-positive antibacterial activity

CN(C)[C@@H]1C(=O)C(C(N)=O)=C(O)[C@@]2(O)C(=O)C3=C(O)c4c(O)cccc4[C@@](C)(O)[C@H]3C[C@@H]12 [tetracycline]
growth of strain C38291 inhibited or not [1]: inhibited

[H]/N=C(/N)N[C@H]1[C@H](O)[C@@H](O)[C@H](O[C@@H]2O[C@@H](C)[C@](O)(C=O)[C@H]2O[C@@H]2O[C@@H](CO)[C@H](O)[C@@H](O)[C@@H]2NC)[C@@H](N/C(N)=N\[H])[C@@H]1O [streptomycin]
growth of strain C38291 inhibited or not [1]: inhibited

virenomycin
antitumor activity (in words) [2]: comparatively low antitumor activity and narrow spectrum
